Source: ChEMBL document CHEMBL1201862, “PubChem BioAssay data set” (2004)
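Method: 48-hour compound exposure of cells in 96-well plates, five concentrations, linear interpolation of endpoints. Abbreviation: GI50, concentration required for 50% inhibition of growth.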 Calls of active or inactive are those of the source. No stated cut-off is given here; in the data, active = GI50 up to about 1.1 µM and inactive = higher.

How the values were obtained:
Assay in all cases: DTP human tumour cell line panel, 48 h
DU-145 = tested on: DU-145
MCF7 = tested on: MCF7
UACC-62 = tested on: UACC-62
CCRF-CEM = tested on: CCRF-CEM
NCI-H226 = tested on: NCI-H226
SN12C = tested on: SN12C
BT-549 = tested on: BT-549
LOX IMVI = tested on: LOX IMVI
RPMI-8226 = tested on: RPMI-8226
SNB-19 = tested on: SNB-19
SF-295 = tested on: SF-295
OVCAR-3 = tested on: OVCAR-3
Malme-3M = tested on: Malme-3M
ACHN = tested on: ACHN
HOP-62 = tested on: HOP-62
M14 = tested on: M14
HOP-92 = tested on: HOP-92
SR = tested on: SR

Measured: GI50

O=C(O)C12C3CCC(O3)C1(C(=O)O)C1CCC2O1 (configuration not stated)
inactive: DU-145 > 100 µM | MCF7 > 100 µM | UACC-62 > 100 µM | CCRF-CEM > 100 µM | NCI-H226 > 100 µM | SN12C > 100 µM | BT-549 > 100 µM | LOX IMVI > 100 µM | RPMI-8226 > 100 µM | SNB-19 > 100 µM | SF-295 > 100 µM | OVCAR-3 > 100 µM | Malme-3M > 100 µM | ACHN > 100 µM | HOP-62 > 100 µM

Cc1cc2[nH]c3c(C#N)c(-c4ccccc4)c(/N=N/c4ccc(F)cc4)c(=O)n3c2cc1C
inactive: MCF7 > 100 µM | M14 > 100 µM | CCRF-CEM > 100 µM | NCI-H226 > 100 µM | SN12C > 100 µM | BT-549 > 100 µM | LOX IMVI > 100 µM | RPMI-8226 > 100 µM | SNB-19 > 100 µM | SF-295 > 100 µM | OVCAR-3 3.21 µM | ACHN > 100 µM | HOP-62 > 100 µM

CCCCNC(=O)C1=C(C)NC(C)=C(C(=O)NCCCC)C1
inactive: DU-145 > 100 µM | MCF7 > 100 µM | UACC-62 > 100 µM | M14 > 100 µM | NCI-H226 > 100 µM | SN12C > 100 µM | BT-549 > 100 µM | LOX IMVI > 100 µM | SNB-19 > 100 µM | SF-295 > 100 µM | HOP-92 > 100 µM | OVCAR-3 > 100 µM | ACHN > 100 µM | HOP-62 > 100 µM

O=C(N/N=C1\CCc2ccccc2C1)N/N=C1\CCc2ccccc2C1
inactive: DU-145 > 10 µM | MCF7 > 10 µM | M14 > 10 µM | CCRF-CEM > 10 µM | NCI-H226 > 10 µM | SN12C > 10 µM | BT-549 > 10 µM | RPMI-8226 > 10 µM | SNB-19 > 10 µM | SF-295 > 10 µM | OVCAR-3 > 10 µM | Malme-3M > 10 µM | ACHN > 10 µM | HOP-62 > 10 µM | SR > 10 µM

[O-][n+]1nc(N2CCOCC2)nc2ccccc21
inactive: DU-145 > 100 µM | MCF7 > 100 µM | UACC-62 > 100 µM | M14 > 100 µM | CCRF-CEM > 100 µM | NCI-H226 > 100 µM | SN12C > 100 µM | BT-549 > 100 µM | LOX IMVI > 100 µM | RPMI-8226 > 100 µM | SNB-19 > 100 µM | SF-295 > 100 µM | Malme-3M > 100 µM | ACHN > 100 µM | HOP-62 > 100 µM

COc1cc(C)c(/C=C2/N=C(c3ccccc3)OC2=O)c([N+](=O)[O-])c1OC
inactive: DU-145 > 100 µM | MCF7 > 100 µM | UACC-62 > 100 µM | M14 > 100 µM | CCRF-CEM 73.6 µM | NCI-H226 > 100 µM | SN12C > 100 µM | BT-549 > 100 µM | LOX IMVI > 100 µM | RPMI-8226 > 100 µM | SNB-19 > 100 µM | SF-295 > 100 µM | HOP-92 37.4 µM | OVCAR-3 > 100 µM | Malme-3M > 100 µM | ACHN > 100 µM | HOP-62 > 100 µM

O=C1N[C@H](C(=O)O)[C@@H](c2ccc(OCc3ccccc3)cc2)O1
inactive: DU-145 35.5 µM | MCF7 37.1 µM | UACC-62 67.5 µM | M14 > 100 µM | CCRF-CEM > 100 µM | NCI-H226 24.9 µM | SN12C 45.1 µM | BT-549 32.1 µM | RPMI-8226 11.6 µM | SNB-19 17.7 µM | SF-295 26.1 µM | OVCAR-3 92.5 µM | Malme-3M > 100 µM | ACHN 36.5 µM | HOP-62 13.6 µM

COc1ccc(CCN2CCN(CCc3ccc(OC)cc3)CC2)cc1
inactive: DU-145 > 100 µM | MCF7 > 100 µM | UACC-62 > 100 µM | M14 > 100 µM | CCRF-CEM > 100 µM | NCI-H226 > 100 µM | SN12C > 100 µM | BT-549 > 100 µM | LOX IMVI > 100 µM | RPMI-8226 > 100 µM | SNB-19 > 100 µM | SF-295 46.6 µM | HOP-92 > 100 µM | OVCAR-3 > 100 µM | Malme-3M > 100 µM | ACHN > 100 µM | HOP-62 > 100 µM

C=C1C(=O)C23CC1CCC2C12CO[C@H](O)[C@H]1C(C)(C)[C@H](OC(C)=O)C[C@H]2OC3=O (some centres not stated)
inactive: DU-145 25.5 µM | MCF7 15.8 µM | UACC-62 15 µM | M14 25.4 µM | CCRF-CEM 6.14 µM | NCI-H226 > 100 µM | SN12C 21.1 µM | BT-549 9.48 µM | LOX IMVI 18.1 µM | RPMI-8226 76.7 µM | SNB-19 > 100 µM | SF-295 > 100 µM | HOP-92 10.1 µM | OVCAR-3 22.5 µM | Malme-3M 13.3 µM | ACHN 15.9 µM
